Laboratory results from US20190248834A1, “ENDOMORPHIN-2, TETRAPEPTIDE DERIVATIVES THEREOF, AND USES THEREOF” (priority 2016, published 2019).
Non-standard residues stand in square brackets, D forms with d. pGlu = O=C1CC[C@@H](C(=O)O)N1

How the values were obtained:
Type in all cases: in vivo, human
[1] = tested on: traumatized right big toe; assay: Example 34: analgesic effect on pain in big toe following trauma, topical; details: 1% (w/v) in WEP442, topical
Method: A subject, traumatized their right big toe while repositioning heavy furniture, and experienced disabling persistent pain of that toe. About 10 minutes after the trauma occurred, they topically applied a composition containing 1% (w/v) of N-Ac-Tyr-Pro-Phe-Phe-NH2 (SEQ ID NO: 23) in WEP442 to the toe.

[2] = tested on: severe nauseating headache; assay: Example 60: analgesic effect on headache due to inhalation of exhaust fumes, topical; details: 0.5% (w/v) in WEP442, topical
Description: A construction worker, suffered a severe nauseating headache on a day when, for about an hour, they were exposed to exhaust fumes from a gasoline motor driven dust blower early in the day. The headache persisted all day and into the evening.

[3] = tested on: knee and lower back pain from osteoarthritis; assay: Example 14: analgesic effect on osteoarthritic knees and lower back, topical; details: 1% (w/v) in WEP442, about 60 ml to whole body
Method: A subject had severe knee pain for many years and lower back pain for approximately one year from osteoarthritis, and in both cases, the pain was partially relieved by oral opiates. One day before bedtime, the subject took a low dose of an opiate, but the next morning, they still developed substantial pain in the knees and moderate pain in the lower back.
The subject topically applied approximately 60 ml of a solution composition containing 1% (w/v) N-Ac-Tyr-Pro-Phe-Phe-NH2 (SEQ ID NO: 23) in WEP442 to the whole body, excluding only the scalp, face and soles. […] This lowered degree of pain was maintained for about 7 hours.

[4] = tested on: jaw pain after tooth extraction; assay: Example 29: analgesic effect on dental extraction pain, topical
Method: A subject had substantial pain in the right maxillary jaw that started about 2 hours after extraction of a right maxillary tooth. […] Only negligible discomfort, perceived by touching the extraction site with the tongue, was detectable thereafter.

[5] = tested on: knee pain, lateral meniscus; assay: Example 58: analgesic effect on knee pain due to injured lateral meniscus, topical; details: 1% (w/v) in WEP442, topical
Description: A subject had knee pain at the site of the lateral meniscus of the right knee, secondary to repeated trauma in the course of their work as a house builder. They evaluated two (2) tetrapeptide derivatives for efficacy in relieving this pain, including N-Ac-Tyr-Pro-Phe-Phe-NH2 (SEQ ID NO: 23) and N-Pg-Tyr-Pro-Phe-Phe-NH2 (SEQ ID NO: 44), both as a 1% (w/v) solution composition in WEP442. One solution composition was topically applied during the course of a day; and the other solution composition was topically applied during the course of the following day. The evaluation continued over a period of 8 days in this schedule.

herpes zoster pain = assay: Example 6: analgesic effect on viral infection, topical
Description: A subject had herpes zoster on a temporal branch of the tri-geminal nerve with severe clinical pain involving the areas of left temporal, left forehead, left scalp, left neck, and left ear canal. Touching the left anterior scalp hair provoked severe pain.
The subject topically administered an anhydrous composition containing 0.5% (w/v) N-Ac-Tyr-Pro-Phe-Phe-NH2 (SEQ ID NO: 23) in EP73, formulated as described in Example 2, by applying a few drops to wet the skin surface. […] The pain relief lasted for up to 1 hour. Multiple repeated topical applications of the anhydrous composition containing 0.5% (w/v) N-Ac-Tyr-Pro-Phe-Phe-NH2 (SEQ ID NO: 23) in EP73 gave the same analgesic result with 4+ relief of pain according to clinical evaluation, and also for longer periods of up to 6 hours.

severe frontal headaches = assay: Example 47: analgesic effect on severe headaches, topical
Description: A subject had severe frontal headaches occurring every 5-10 days.

[6] = tested on: psoriatic arthritis pain, fingers and wrists; assay: Example 48: comparative analgesic efficacy, psoriatic arthritis pain of fingers and wrists, topical; details: 1% (w/v) in WEP442, topical
Description: […] Treatment of the subject over the years included methotrexate and other antimetabolites, and in recent years drugs known as biologic medications. While these agents have provided intervals of relief, none has provided a lasting benefit. Over the past decade, painful arthritis developed in both wrists and in numerous joints of the fingers. Four related tetrapeptide derivatives, 1% (w/v) solution compositions in vehicle WEP442, one at a time, were topically applied to the fingers and wrists of both hands. […] Efficacy was rated by the subject as 4+. • (B) N-Ac-Tyr-Pro-Phe-Phe-NHNH2 (SEQ ID NO: 31) provided slow relief of pain, i.e. within about 10 minutes. […] Analgesic efficacy was judged by the subject to be 0 to 1+.

knee pain and foot pain = assay: Example 71: analgesic effect on foot sprain and knee pain following patella fracture, topical; details: 0.5% (w/v) in WEP442, topical
Description: A subject suffered severe pain in their left knee and in the arch of their left foot following a forward fall to a wooden floor. Diagnoses of multiple fractures of the patella and a bruised foot were made by x-ray. Surgical repair of the knee was done, following which severe knee pain and acute pain in the arch of the foot persisted. […] Topical applications 3-4 times daily allowed the subject to pursue rehabilitation procedures pain free.

[7] = tested on: very severe osteoarthritis of the knees; assay: Example 45: analgesic effect on osteoarthritic knees, topical lotion; details: 1% (w/w) lotion
Method: One gram of the tetrapeptide derivative N-Pg-Tyr-Pro-Phe-Phe-NH2(SEQ ID NO: 44) was dissolved in propylene glycol (33 ml) and diisopropyl adipate (33 ml), and the resultant solution was mixed with an oil-in-water emulsion (33 g) to yield a light lotion containing 1% (w/w) of […] (SEQ ID NO: 44). This lotion was generously applied topically to the knees and lower legs of a subject, having very severe osteoarthritis of the knees for many years. After topical application of the lotion to the lower legs and knees, plastic film was applied to cover the treated areas. The plastic film was removed 8 hours later. […] Pain began to return after about 4 days.

stress induced headache = assay: Example 51: analgesic effect on stress induced headache, topical
Description: The onset of the headache was associated with emotional stress. Within two hours, the intensity of the headache became almost disabling, whereupon […] applied a solution composition containing 1% (w/v) N-Pg-Ty-Pro-Phe-Phe-NH2 (SEQ ID NO: 44) in WEP442 to the entire frontal and upper facial areas. […] At that time, the solution was generously applied a second time. […] The analgesic effect was judged to be 100%.

[8] = 0.5% (w/v) in EP73, multiple repeated topical applications

## CC(=O)N[C@@H](Cc1ccc(O)cc1)C(=O)N1CCC[C@H]1C(=O)N[C@@H](Cc1ccccc1)C(=O)N[C@@H](Cc1ccccc1)C(N)=O [N-Ac-Tyr-Pro-Phe-Phe-NH2]
[1]
  pain relief: Complete relief of pain
  recurrence: did not return
  time to pain relief: 15 to 30 s
[2]
  pain relief: completely relieved the headache
  time to pain relief: ≤ 2 min
[3]
  duration of lowered degree of pain: about 7 hours
[3]; after 4 hours
  pain in both knees and the lower back: diminished to very low level
[3]; over the next 2 hours
  pain in both knees and the lower back: diminished substantially
[4]; 1% (w/v) in WEP442, topical
  time to pain relief: ≤ 1 min
[4]; 1% (w/v) in WEP442, topical to facial maxillary area
  pain relief: complete relief of pain
[5]
  duration of pain relief: about 4 hours
  pain relief: complete relief of pain
Herpes zoster pain; [8]
  duration of pain relief: up to 6 hours
  relief of pain according to clinical evaluation: 4+ (4+ (90-100%): complete relief or eradication of pain for more than 4 hours)
Herpes zoster pain; 0.5% (w/v) in EP73, topical
  pain relief: pain disappeared completely
  time to pain relief: Within about a minute
Herpes zoster pain; 0.5% (w/v) in EP73, topical, first application
  duration of pain relief: up to 1 hour
Severe frontal headaches; 1% (w/v) in WEP442, topical
  time to pain relief: 3 to 4 min
Severe frontal headaches; 1% (w/v) in WEP442, topical at onset
  pain relief: completely interrupted all pain
[6]
  pain relief: rapid complete relief of pain

## N-Pg-Tyr-Pro-Phe-Phe-NH2 ([pGlu]YPFF-NH2; SMILES NC(=O)[C@H](Cc1ccccc1)NC(=O)[C@H](Cc1ccccc1)NC(=O)[C@@H]1CCCN1C(=O)[C@H](Cc1ccc(O)cc1)NC(=O)[C@@H]1CCC(=O)N1)
Knee pain and foot pain
  duration of pain relief: more than 6 hours
  pain relief: immediate and complete relief of knee pain and foot pain
[5]
  duration of pain relief: about 4 hours
  pain relief: complete relief of pain
[6]
  pain relief: rapid relief of pain
[7]
  time to return of pain: about 4 days
[7]; under plastic film 8 hours, daily for 3 days
  pain relief: pain had subsided almost completely
Stress induced headache; 1% (w/v) in WEP442, first application, within about 5 minutes
  headache intensity: diminished in intensity
Stress induced headache; 1% (w/v) in WEP442, second application, within another 5 minutes
  pain relief: free of all headache pain
Stress induced headache; 1% (w/v) in WEP442, topical
  analgesic effect: 100%
  time without return of pain: ≥ 24 h
